According to patent US20150274777A1, “KETOAMIDE IMMUNOPROTEASOME INHIBITORS” (HOFFMANN-LA ROCHE INC., priority 2012, published 2015):

Experiments:
[1] = target: T1, β1i (Homo sapiens, UniProt P28065+P40306); test: Cell-Based Proteasome Activity/Selectivity Assay (Ramos cells), substrate (PAL)2Rh110; conditions: highest concentration tested 20 μM
T1 construct: protease activity associated with the proteasome complex in cultured cells; endogenous in cells; host or cells: Ramos cells
From the text: (§1) Cell-Based Proteasome Activity/Selectivity Assay
(§2) The Cell-Based Proteasome subunit activity/selectivity assay was a panel of 5 fluorogenic assays that independently measured the activity of β5c or β5i (chymotrypsin-like activity), β2c/2i (trypsin-like), and β1c or β1i (caspase-like) protease activity associated with the proteasome complex in cultured cells. Specifically, the following substrates were used for respective subunit activities: β1i: (PAL)2Rh110, β1c: (LLE)2 Rh110, β2c/2i: (KQL)2Rh110, β5c: (WLA)2Rh110, β5i: (ANW)2Rh110. The following procedure was followed:
(§3) Cell preparation: Plated 25 μl of Ramos cells (2×10^6/ml in DPBS) into half area plate (PerkinElmer Cat 6005569) to final 5×10^4 cells/well. Added 0.5 μl of 100×4-fold serial diluted test compounds or DMSO to each well. Highest concentration of compound tested was 20 μM, thus compound serial dilution started from […]. Incubated for 30 minutes at 37° C. Then equilibrated at room temperature for 15 minutes. Added 25 μl of 2× reaction mix consisting of 0.025% digitonin, 20 μM of each substrates and 0.5M sucrose in DPBS. Shaked for one minute @ 700 rpm. Incubated for 120 min at room temperature. Then read the plates with an Envision multilabel plate reader (PerkinElmer) with 500 nm excitation/519 nm emission.

[2] = target: T2, β5c (Homo sapiens, UniProt P20618+P28074); test: Cell-Based Proteasome Activity/Selectivity Assay (Ramos cells), substrate (WLA)2Rh110; conditions: highest concentration tested 20 μM
T2 construct: protease activity associated with the proteasome complex in cultured cells; endogenous in cells; host or cells: Ramos cells
From the text: as §1, §2, §3

[3] = test system: IP10 level in PBMCs stimulated with CpG Type A; test: PBMC IP-10 Assay; type: cell-based; conditions: CpG Type A 2.5 μM
Protocol: PBMCs were isolated from whole blood as follows: Blood was collected in a sterile environment in heparinized tubes. Blood was diluted with an equal volume PBS/2% FCS and 30 ml of this mixture was added to ACCUSPIN tubes containing 15 ml Histopaque-1077 already centrifuged at 800 g for 30 seconds and warmed up at room temperature. The tubes were then centrifuged at 800 g for 20 minutes at room temperature with no brake. The mononuclear band, just above the polyethylene frit, was removed by Pasteur pipet. These mononuclear cells were washed three times with sterile PBS, counted, and resuspended in RPMI 1640 supplemented with 10% heat inactivated fetal calf serum, 10 mM HEPES, 1 mM sodium pyruvate, penicillin (50 U/ml), streptomycin (50 μg/ml) and glutamine (2 mM) to approximately 1.5×10^6/ml. Approximately 2×10^5 cells/well were plated in 96 well tissue culture plates (BD Falcon 353072), and preincubated 60 mi/37° C. with a titration of compounds, in a final concentration of 1% DMSO. Cells were then stimulated with CpG Type A (Invivogen, Cat #tlrl-2216; ODN 2216) at a final concentration of 2.5 μM. Cells were incubated overnight, and supernatants were removed. PBMC viability of cells remaining in the well was measured with ATPlite luminescence assay (Perkin-Elmer) per the manufacturer's instructions. Luminescence was measured on the Perkin-Elmer Envision, using the luminescence filter. IP10 level was measured with CXCL10/IP10 AlphaLISA kit (Perkin-Elmer) per the manufacturer's instructions, except halving all volumes. Fluorescence was measured on the Envision Multilabel plate reader, using the AlphaScreen standard settings.

[4] = target: T3, β1c (Homo sapiens, UniProt P28072+Q99436); test: Cell-Based Proteasome Activity/Selectivity Assay (Ramos cells), substrate (LLE)2 Rh110; conditions: highest concentration tested 20 μM
T3 construct: protease activity associated with the proteasome complex in cultured cells; endogenous in cells; host or cells: Ramos cells
From the text: as §1, §2, §3

[5] = target: T4, β5i (Homo sapiens, UniProt P20618+P28062); test: Cell-Based Proteasome Activity/Selectivity Assay (Ramos cells), substrate (ANW)2Rh110; conditions: highest concentration tested 20 μM, read-out: Ic50 ramos:ac-(anw)2-r110
T4 construct: protease activity associated with the proteasome complex in cultured cells; endogenous in cells; host or cells: Ramos cells
From the text: as §1, §2, §3

[6] = test system: β2c/2i; test: Cell-Based Proteasome Activity/Selectivity Assay (Ramos cells), substrate (KQL)2Rh110; conditions: highest concentration tested 20 μM
From the text: as §1, §2, §3

Structure (SMILES)	IC50 [1] [nM]	IC50 [2] [nM]	IC50 [4] [nM]	IC50 [5] [nM]	IC50 [6] [nM]	EC50 [3] [nM]
CCCCC(NC(=O)[C@H](COC)NC(=O)[C@H](C)NC(=O)c1cc(C)on1)C(=O)C(=O)NCc1ccccc1 (mixture of isomers) [Example 6, 5-Methyl-isoxazole-3-carboxylic acid {(S)-1-[(S)-1-((S)-1-benzylaminooxalyl-pentylcarbamoyl)-2-methoxy-ethylcarbamoyl]-ethyl}-amide]	949	5520	> 20000	1040	> 20000	13600
CCCC[C@H](NC(=O)[C@H](CC(C)C)NC(=O)[C@@H](NC(=O)CN1CCOCC1)C(C)(C)C)C(=O)C(=O)NCc1ccccc1 [Example 2, (S)-3-{(S)-2-[(S)-3,3-Dimethyl-2-(2-morpholin-4-yl-acetylamino)-butyrylamino]-4-methyl-pentanoylamino}-2-oxo-heptanoic acid benzylamide]	661	2430	8700	2080	> 20000	12100
CCCC[C@H](NC(=O)[C@H](Cc1ccc(OC)cc1)NC(=O)[C@H](C)NC(=O)CN1CCOCC1)C(=O)C(=O)NCc1ccccc1 [Example 3, (S)-3-{(S)-3-(4-Methoxy-phenyl)-2-[(S)-2-(2-morpholin-4-yl-acetylamino)-propionylamino]-propionylamino}-2-oxo-heptanoic acid benzylamide]	560	3200	> 20000	394	> 20000	7960
CCCC[C@H](NC(=O)[C@H](Cc1c[nH]c2ccccc12)NC(=O)[C@H](C)NC(=O)C1=C(C)c2ccccc2C1)C(=O)C(=O)N[C@@H](C)c1ccccc1 [Example 7]	712	3050	13200	102	> 20000	4010
CCCC[C@H](NC(=O)[C@H](Cc1c[nH]c2ccccc12)NC(=O)[C@H](C)NC(=O)OCc1ccccc1)C(=O)C(=O)NCc1ccccc1 [Example 9, {(S)-1-[(S)-1-((S)-1-Benzylaminooxalyl-pentylcarbamoyl)-2-(1H-indol-3-yl)-ethylcarbamoyl]-ethyl}-carbamic acid benzyl ester]	34	815	> 20000	26	> 20000	5290
CCCC[C@H](NC(=O)[C@H](Cc1c[nH]c2ccccc12)NC(=O)[C@H](C)NC(=O)CN1CCOCC1)C(=O)C(=O)NCc1ccccc1 [Example 10, (S)-3-{(S)-3-(1H-Indol-3-yl)-2-[(S)-2-(2-morpholin-4-yl-acetylamino)-propionylamino]-propionylamino}-2-oxo-heptanoic acid benzylamide]	275	1900	> 20000	709	> 20000	–
CCCC[C@H](NC(=O)[C@H](Cc1c[nH]c2ccccc12)NC(=O)[C@H](C)NC(=O)c1ccnn1C)C(=O)C(=O)NCc1ccccc1 [Example 13, 2-Methyl-2H-pyrazole-3-carboxylic acid {(S)-1-[(S)-1-((S)-1-benzylaminooxalyl-pentylcarbamoyl)-2-(1H-indol-3-yl)-ethylcarbamoyl]-ethyl}-amide]	–	2960	9560	403	> 20000	3970
CCCC[C@H](NC(=O)[C@H](Cc1ccc(OC)cc1)NC(=O)[C@H](C)NC(=O)CN1CCOCC1)C(=O)C(=O)NC [Example 14, (S)-3-{(S)-3-(4-Methoxy-phenyl)-2-[(S)-2-(2-morpholin-4-yl-acetylamino)-propionylamino]-propionylamino}-2-oxo-heptanoic acid methylamide]	426	16500	> 20000	699	> 20000	5180
CCCC[C@H](NC(=O)[C@H](CCS(C)(=O)=O)NC(=O)[C@H](C)NC(=O)C1=C(C)c2ccccc2C1)C(=O)C(=O)NCc1ccccc1 [Example 15, 3-Methyl-1H-indene-2-carboxylic acid {(S)-1-[(S)-1-((S)-1-benzylaminooxalyl-pentylcarbamoyl)-3-methanesulfonyl-propylcarbamoyl]-ethyl}-amide]	210	3540	8430	101	> 20000	1910

Compounds with a lower IC50 [2], results first:

IC50 [1] [nM]	IC50 [2] [nM]	IC50 [4] [nM]	IC50 [5] [nM]	IC50 [6] [nM]	Structure (SMILES)	EC50 [3] [nM]
504	771	11100	33	> 20000	CCCC[C@H](NC(=O)[C@H](Cc1c[nH]c2ccccc12)NC(=O)[C@H](C)NC(=O)C1=C(C)c2ccccc2C1)C(=O)C(=O)N[C@H](C)c1ccccc1 [Example 8]	1780
91	763	5700	83	> 20000	CCCC[C@H](NC(=O)[C@H](Cc1c[nH]c2ccccc12)NC(=O)[C@H](C)NC(=O)c1cc(C)on1)C(=O)C(=O)NCc1ccccc1 [Example 4, 5-Methyl-isoxazole-3-carboxylic acid {(S)-1-[(S)-1-((S)-1-benzylaminooxalyl-pentylcarbamoyl)-2-(1H-indol-3-yl)-ethylcarbamoyl]-ethyl}-amide]	3910
142	560	3350	18	> 20000	CCCC[C@H](NC(=O)[C@H](Cc1c[nH]c2ccccc12)NC(=O)[C@H](C)NC(=O)C1=C(C)c2ccccc2C1)C(=O)C(=O)NCc1ccccc1 [Example 5, 3-Methyl-1H-indene-2-carboxylic acid {(S)-1-[(S)-1-((S)-1-benzylaminooxalyl-pentylcarbamoyl)-2-(1H-indol-3-yl)-ethylcarbamoyl]-ethyl}-amide]	1220
–	473	2980	14	8040	CCCC[C@H](NC(=O)[C@H](Cc1c[nH]c2ccccc12)NC(=O)[C@H](C)NC(=O)C1Cc2ccccc2C1)C(=O)C(=O)NCc1ccccc1 [Example 11, Indan-2-carboxylic acid {(S)-1-[(S)-1-((S)-1-benzylaminooxalyl-pentylcarbamoyl)-2-(1H-indol-3-yl)-ethylcarbamoyl]-ethyl}-amide]	1220
910	450	3550	146	10600	CCCC[C@H](NC(=O)[C@H](CC(C)C)NC(=O)[C@@H](NC(=O)[C@H](Cc1ccccc1C)NC(C)=O)C(C)(C)C)C(=O)C(=O)NCc1ccccc1 [Example 1, (S)-3-{(S)-2-[(S)-2-((S)-2-Acetylamino-3-o-tolyl-propionylamino)-3,3-dimethyl-butyrylamino]-4-methyl-pentanoylamino}-2-oxo-heptanoic acid benzylamide]	2050
–	381	5430	36	> 20000	CCCC[C@H](NC(=O)[C@H](Cc1c[nH]c2ccccc12)NC(=O)[C@H](C)NC(=O)c1cccc(Cl)c1Cl)C(=O)C(=O)NCc1ccccc1 [Example 12, N-{(S)-1-[(S)-1-((S)-1-Benzylaminooxalyl-pentylcarbamoyl)-2-(1H-indol-3-yl)-ethylcarbamoyl]-ethyl}-2,3-dichloro-benzamide]	2610
